Paper PMC4015918, “Conjugation to a SMAC mimetic potentiates sigma-2 ligand induced tumor cell death in ovarian cancer” (Molecular Cancer, 2014)

Experiments:
Assay type in all cases: cell-based
[1] = tested on: SKOV3 cells; experiment: Annexin V binding (apoptosis), flow cytometry; settings: SKOV3 cells, 3, 6 and 10 μM, 16 hours
Description: SKOV3 cells were treated with different concentrations of SW IV-134 (3 μM, 6 μM, and 10 μM) for 16 hours. Staining was performed using the Annexin V Apoptosis Detection Kit (BioLegend, San Diego, CA) according to the manufacturer’s instructions. The apoptosis rate was determined by flow cytometry (FACSCalibur, BD Biosciences, San Jose, CA).
Supplementary file 1476-4598-13-50-S4.pdf: Additional file 4: Figure S3 Flow cytometric determination of apoptosis. SKOV3 cells were treated with increasing concentrations of SW IV-134. Untreated cells served as a negative staining control. The cells were then assessed for apoptosis induction by flow cytometry following staining with propidium iodide/Annexin V. Click here for file

[2] = molecular target: T1, XIAP (Homo sapiens, UniProt P98170); experiment: Western blot for XIAP levels; settings: SKOV3 cells, 10 μM, 4 hours
T1 construct: endogenous in cells; host or cells: SKOV3
T1 sequence (P98170 whole entry): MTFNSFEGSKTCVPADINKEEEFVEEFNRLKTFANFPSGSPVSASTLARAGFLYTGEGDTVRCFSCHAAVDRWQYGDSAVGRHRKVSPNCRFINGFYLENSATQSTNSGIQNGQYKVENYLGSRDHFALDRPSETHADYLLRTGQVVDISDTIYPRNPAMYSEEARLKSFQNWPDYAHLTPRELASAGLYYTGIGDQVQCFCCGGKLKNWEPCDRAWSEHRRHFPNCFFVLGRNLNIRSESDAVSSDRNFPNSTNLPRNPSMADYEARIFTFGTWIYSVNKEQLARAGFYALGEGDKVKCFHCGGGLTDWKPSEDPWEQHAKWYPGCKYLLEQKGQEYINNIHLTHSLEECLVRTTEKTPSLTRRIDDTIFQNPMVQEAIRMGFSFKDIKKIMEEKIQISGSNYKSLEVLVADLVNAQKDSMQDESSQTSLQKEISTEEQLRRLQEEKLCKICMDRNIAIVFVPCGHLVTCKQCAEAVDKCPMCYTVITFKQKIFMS
Description: (§1) Figure 4 SW IV-134 engages in SMAC-dependent pathway activation. (A) SKOV3 cells were treated with vehicle only (Ctrl.), SW43 (10 μM), and SW IV-134 (10 μM) for 4 hours and cell lysates were subjected to Western blot analysis using antibodies against XIAP, cIAP-1, cIAP-2, NF-қB and NIK. While XIAP seems unaffected under the conditions used, cIAP-1 and cIAP-2 proteins are readily undetectable shortly post treatment. SW IV-134 treatment also leads to accumulation of NF-қB inducing kinase (NIK) and activation of NF-қB pathway. (B) SKOV3 cells were treated with SW IV-134 at the indicated doses either alone or in the presence of proteasome inhibitor MG132 (20 μM) for 18 hours. […] Cell viability was determined as described in the experimental methods (p < 0.011, Student’s t-test).
(§2) Cells were lysed in radioimmunoprecipitation assay buffer [50 mM Tris, 150 mM sodium chloride, 1.0 mM EDTA, 1% Nonidet P40, and 0.25% SDS (pH 7.0)], supplemented with complete protease inhibitor cocktail (Roche, Mannheim) and phosphatase inhibitor cocktail 1 (Sigma Chemical Co., St. Louis, MO). The protein concentration was determined using a BioRad Dc protein assay kit (Bio-Rad Laboratories, Hercules, CA). Lysates containing 30 μg of protein were run on a 12% polyacrylamide gel and transferred to a PVDF membrane (Bio-Rad Laboratories, Hercules, CA). […]

[3] = tested on: NF-қB (p65); experiment: Western blot for phosphorylation of NF-қB (p65); settings: SKOV3 cells, 10 μM, 4 hours
Description: as §1, §2

[4] = tested on: cIAP-1 and cIAP-2; experiment: Western blot for cIAP-1 and cIAP-2 levels; settings: 10 μM
Description: as §1, §2

## COc1ccc(C)cc1NC(=O)OC1CC2CCCC(C1)N2CCCCCCCCCCN[C@@H](C)C(=O)N[C@H](C(=O)N1CCC[C@H]1C(=O)N[C@@H]1CCCc2ccccc21)C(C)(C)C (some centres unmarked) [SW IV-134]
[1]
  Annexin V binding: increased Annexin V binding relative to the untreated control cells in a dose dependent manner
[2]
  XIAP levels: without affecting the XIAP levels
[3]
  Activation (phosphorylation) of NF-қB (p65): activation (phosphorylation) of NF-қB (p65)
[4]; SKOV3, Hey A8 and Hey A8 MDR cells, 2 hours
  cIAP-1 protein level: readily undetectable shortly after treatment
[4]; SKOV3 cells, 4 hours
  cIAP-1 and cIAP-2 protein levels: rapid loss of both cIAP-1 and cIAP-2
